Data from ChEMBL document CHEMBL5126634, “Naturally Occurring Partially Reduced Perylenequinones from Fungi” (J Nat Prod, 2022).
In brackets after ≈: the same amount, converted by molar mass.

Key:
Bel-7402 = assay: Cytotoxicity against human Bel-7402 cells assessed as cell growth inhibition; format: functional, cell-based
K562 = assay: Cytotoxicity against human K562 cells assessed as cell growth inhibition; format: functional, cell-based
SGC-7901 = assay: Cytotoxicity against human SGC-7901 cells assessed as cell growth inhibition; format: functional, cell-based
[1] = Cytotoxicity against African green monkey Vero cells assessed as cell growth inhibition incubated for 48 hrs by neutral red dye based assay; format: toxicity; details: African green monkey (Chlorocebus sabaeus)
Plasmodium falciparum [2] = assay: Antimalarial activity against chloroquine sensitive Plasmodium falciparum D6 assessed as parasite growth inhibition incubated for 72 hrs by Malstat reagent assay; format: functional, organism-based; details: D6, 72 h
Leishmania donovani = assay: Antileishmanial activity against Leishmania donovani promastigotes assessed as parasite growth inhibition incubated for 72 hrs by Alamar blue assay; format: functional, organism-based
Plasmodium falciparum [3] = assay: Antimalarial activity against chloroquine resistant Plasmodium falciparum W2 assessed as parasite growth inhibition incubated for 72 hrs by Malstat reagent assay; format: functional, organism-based; details: W2, 72 h
SF-268 = assay: Cytotoxicity against human SF-268 cells assessed as cell growth inhibition; format: functional, cell-based
NCI-H460 = assay: Cytotoxicity against human NCI-H460 cells assessed as cell growth inhibition; format: functional, cell-based
MCF7 = assay: Cytotoxicity against human MCF7 cells assessed as cell growth inhibition; format: functional, cell-based
[4] = molecular target: Telomerase reverse transcriptase (Homo sapiens, UniProt O14746); assay: Inhibition of human telomerase
HepG2 = assay: Cytotoxicity against human HepG2 cells assessed as cell growth inhibition; format: functional, cell-based
[5] = Cytotoxicity against human HeLa cells assessed as cell growth inhibition; format: toxicity, cell-based; details: read-out: ID50 (the source's name)
L5178Y = assay: Cytotoxicity against mouse L5178Y cells assessed as cell growth inhibition; format: functional, cell-based
PC-3 = assay: Cytotoxicity against human PC-3 cells assessed as cell growth inhibition; format: functional, cell-based

Sequence of Telomerase reverse transcriptase (O14746 whole entry): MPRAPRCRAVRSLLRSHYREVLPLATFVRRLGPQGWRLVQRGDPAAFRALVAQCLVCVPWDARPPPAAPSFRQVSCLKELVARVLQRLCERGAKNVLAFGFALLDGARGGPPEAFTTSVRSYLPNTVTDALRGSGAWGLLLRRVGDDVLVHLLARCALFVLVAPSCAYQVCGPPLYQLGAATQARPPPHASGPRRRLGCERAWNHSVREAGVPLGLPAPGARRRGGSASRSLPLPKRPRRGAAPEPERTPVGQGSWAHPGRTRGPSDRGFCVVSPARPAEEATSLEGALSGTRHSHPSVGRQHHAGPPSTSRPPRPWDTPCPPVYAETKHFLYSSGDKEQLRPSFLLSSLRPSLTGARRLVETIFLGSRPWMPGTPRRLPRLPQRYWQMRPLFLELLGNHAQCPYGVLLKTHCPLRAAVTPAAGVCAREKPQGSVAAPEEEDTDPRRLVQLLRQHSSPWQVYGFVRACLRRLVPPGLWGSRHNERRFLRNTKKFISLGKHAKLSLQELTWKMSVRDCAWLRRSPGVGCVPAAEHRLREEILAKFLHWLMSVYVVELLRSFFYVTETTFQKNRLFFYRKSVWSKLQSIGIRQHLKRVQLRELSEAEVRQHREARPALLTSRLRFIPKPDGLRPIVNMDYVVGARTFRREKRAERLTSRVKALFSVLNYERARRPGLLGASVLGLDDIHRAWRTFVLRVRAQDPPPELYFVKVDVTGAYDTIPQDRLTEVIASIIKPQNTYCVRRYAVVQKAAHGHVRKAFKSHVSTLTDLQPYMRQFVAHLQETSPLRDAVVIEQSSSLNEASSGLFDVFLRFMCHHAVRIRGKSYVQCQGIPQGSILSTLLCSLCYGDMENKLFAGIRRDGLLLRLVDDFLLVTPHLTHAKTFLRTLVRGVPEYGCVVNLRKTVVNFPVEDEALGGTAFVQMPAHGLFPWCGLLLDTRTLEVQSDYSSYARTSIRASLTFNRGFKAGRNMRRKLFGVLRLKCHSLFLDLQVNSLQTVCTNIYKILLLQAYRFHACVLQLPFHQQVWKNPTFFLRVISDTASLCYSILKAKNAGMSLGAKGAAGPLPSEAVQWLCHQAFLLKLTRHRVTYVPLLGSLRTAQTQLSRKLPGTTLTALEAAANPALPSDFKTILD

Question: With `O=C1CCc2c3c4c(cc(O)cc4c4ccc(O)c1c24)[C@H](O)CC3` as the compound, how does the IC50 (Bel-7402) read?
Answer: 40.9 µM

Question: And the IC50 (K562)?
Answer: 83.1 µM

Question: What about the IC50 (SGC-7901) of the same compound?
Answer: 27.5 µM

Question: With `CO[C@H]1CC(=O)c2c(O)ccc3c2[C@@]1(O)[C@@H]1c2c-3ccc(O)c2[C@@H](O)[C@@H]2O[C@@H]21` as the compound, how does the IC50 at 48 h [1] read?
Answer: 12.5 µM

Question: What about the IC50 (Plasmodium falciparum [2]) of the same compound?
Answer: 3.2 µg/mL (≈ 8.37 µM)

Question: What about the IC50 (Leishmania donovani) of the same compound?
Answer: 1.4 µg/mL (≈ 3.66 µM)

Question: What about the IC50 (Plasmodium falciparum [3]) of the same compound?
Answer: 2.5 µg/mL (≈ 6.54 µM)

Question: With `O=C1C[C@H](O)[C@@H]2c3c(ccc(O)c31)-c1ccc(O)c3c1[C@@]2(O)[C@H](O)CC3=O` as the compound, how does the IC50 (K562) read?
Answer: 53.5 µM

Question: Which IC50 at 48 h [1] does the source give for `O=C1C[C@H](O)[C@H]2c3c(ccc(O)c31)-c1ccc(O)c3c1[C@@]2(O)[C@H](O)CC3=O` here?
Answer: 9.8 µM

Question: And the IC50 (Plasmodium falciparum [2])?
Answer: 4.2 µg/mL (≈ 11.4 µM)

Question: And the IC50 (Leishmania donovani)?
Answer: 4.4 µg/mL (≈ 11.9 µM)

Question: What about the IC50 (Plasmodium falciparum [3]) of the same compound?
Answer: 3.6 µg/mL (≈ 9.77 µM)

Question: Which IC50 (Leishmania donovani) does the source give for `O=C1C[C@@H](O)[C@]2(O)c3c(ccc(O)c31)-c1ccc(O)c3c1[C@@H]2[C@H]1O[C@@H]1[C@@H]3O` here?
Answer: 2.5 µg/mL (≈ 6.79 µM)

Question: Which results are given for `O=C1C[C@H](O)[C@@H]2c3c(ccc(O)c31)-c1ccc(O)c3c1[C@@]2(O)C=CC3=O`?
Answer: IC50 (SF-268): 1.9 µM; IC50 (NCI-H460): 1.9 µM; IC50 (MCF7): 1.9 µM; IC50 [4]: 30 µM; IC50 (HepG2): 1.9 µM

Question: With `O=C1CC[C@]2(O)c3c(ccc(O)c31)-c1ccc(O)c3c1[C@H]2[C@H]1O[C@H]1[C@@H]3O` as the compound, how does the IC50 (Leishmania donovani) read?
Answer: 3.1 µg/mL (≈ 8.8 µM)

Question: With `O=C1C[C@H](O)[C@@H]2c3c(ccc(O)c31)-c1ccc(O)c3c1[C@@]2(O)CCC3=O` [ALTERTOXIN I] as the compound, how does the GI50 [5] read?
Answer: 20 µg/mL (≈ 56.8 µM)

Question: Which IC50 (SF-268) does the source give for `O=C1CC[C@]2(O)c3c(ccc(O)c31)-c1ccc(O)c3c1[C@H]2[C@H]1O[C@H]1C3=O` here?
Answer: 1.9 µM

Question: And the GI50 [5]?
Answer: 0.5 µg/mL (≈ 1.43 µM)

Question: What about the IC50 (NCI-H460) of the same compound?
Answer: 1.9 µM

Question: What about the IC50 (L5178Y) of the same compound?
Answer: 6.2 µM

Question: And the IC50 (MCF7)?
Answer: 1.9 µM

Question: And the IC50 (PC-3)?
Answer: 14.3 µM

Question: And the IC50 (HepG2)?
Answer: 1.9 µM
